In experiment [1] the test system is Calpain activity in SH-SY5Y cells. The experiment in a line: SH-SY5Y + AMC fluorescence assay (Suc-LLVY-AMC substrate). It is filed as cell-based. As to conditions: read-out: SH-SY5Y + AMC IC50.
Experiment [2] addresses T1, Human Calpain 1/NS1 (Homo sapiens, UniProt P07384).
T1 sequence (P07384 1-714): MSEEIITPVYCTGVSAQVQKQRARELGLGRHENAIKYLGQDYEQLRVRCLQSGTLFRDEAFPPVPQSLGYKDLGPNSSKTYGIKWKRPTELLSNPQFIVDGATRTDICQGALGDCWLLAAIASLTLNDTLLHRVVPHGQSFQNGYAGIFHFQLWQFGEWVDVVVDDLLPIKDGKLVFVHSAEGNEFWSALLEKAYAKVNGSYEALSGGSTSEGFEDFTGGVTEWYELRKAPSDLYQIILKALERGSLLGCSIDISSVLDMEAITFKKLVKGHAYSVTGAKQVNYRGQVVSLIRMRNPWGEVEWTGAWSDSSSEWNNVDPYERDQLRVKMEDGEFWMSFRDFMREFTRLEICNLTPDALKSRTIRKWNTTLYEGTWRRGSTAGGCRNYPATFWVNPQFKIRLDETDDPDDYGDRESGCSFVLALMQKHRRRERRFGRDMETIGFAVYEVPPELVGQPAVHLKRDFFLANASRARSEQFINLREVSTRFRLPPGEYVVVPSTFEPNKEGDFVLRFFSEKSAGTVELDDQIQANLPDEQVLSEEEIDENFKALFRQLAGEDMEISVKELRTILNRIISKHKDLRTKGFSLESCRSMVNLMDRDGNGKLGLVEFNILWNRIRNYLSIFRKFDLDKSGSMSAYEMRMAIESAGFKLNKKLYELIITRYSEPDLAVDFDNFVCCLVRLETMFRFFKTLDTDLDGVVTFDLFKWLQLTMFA
T1 sequence (P04632 1-268 partner): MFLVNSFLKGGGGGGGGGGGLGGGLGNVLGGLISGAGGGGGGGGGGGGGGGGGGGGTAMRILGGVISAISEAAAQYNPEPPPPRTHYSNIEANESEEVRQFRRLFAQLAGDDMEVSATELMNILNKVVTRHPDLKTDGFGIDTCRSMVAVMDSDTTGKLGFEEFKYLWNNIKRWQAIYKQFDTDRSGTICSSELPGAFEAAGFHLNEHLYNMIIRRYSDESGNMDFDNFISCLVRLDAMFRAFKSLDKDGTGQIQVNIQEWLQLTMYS
Put plainly: Calpain inhibition continuous fluorescence (FRET) assay, Human Calpain 1/NS1. Format: biochemical. The settings on record: read-out: Human Calpain 1/NS1 IC50. In short, it runs like this:
(§1)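 Inhibitors were preincubated with calpain in 50 mM Tris pH 7.5, 100 mM NaCl, 1 mM DTT at 25C. Reactions were started with 5-FAM/QXL 520 FRET peptide substrate plus CaCl2 and read at 490/520 nm for 10 min. IC50s came from 4-parameter fits of slope rates (1-5 min).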

Experiment [3] addresses T2, Human Calpain 9/NS1 (Homo sapiens, UniProt O14815).
T2 sequence (O14815 1-690): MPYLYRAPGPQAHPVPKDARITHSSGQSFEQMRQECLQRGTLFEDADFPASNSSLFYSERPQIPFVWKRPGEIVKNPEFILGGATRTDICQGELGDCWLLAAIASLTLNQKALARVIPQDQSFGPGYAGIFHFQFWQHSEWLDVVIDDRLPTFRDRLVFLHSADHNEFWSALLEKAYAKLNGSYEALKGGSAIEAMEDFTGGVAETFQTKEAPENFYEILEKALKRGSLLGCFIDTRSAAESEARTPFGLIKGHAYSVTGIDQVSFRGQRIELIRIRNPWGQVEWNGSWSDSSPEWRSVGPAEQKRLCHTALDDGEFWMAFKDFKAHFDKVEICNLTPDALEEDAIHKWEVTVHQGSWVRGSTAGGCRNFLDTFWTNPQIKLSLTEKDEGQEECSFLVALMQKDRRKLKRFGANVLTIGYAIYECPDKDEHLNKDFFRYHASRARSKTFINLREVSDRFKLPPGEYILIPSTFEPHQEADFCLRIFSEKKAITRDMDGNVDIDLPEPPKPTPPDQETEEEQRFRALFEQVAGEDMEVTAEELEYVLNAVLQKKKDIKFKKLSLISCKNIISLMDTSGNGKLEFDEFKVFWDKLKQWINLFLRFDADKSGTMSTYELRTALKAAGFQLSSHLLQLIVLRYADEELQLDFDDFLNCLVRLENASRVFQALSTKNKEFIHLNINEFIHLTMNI
T2 sequence (P04632 1-268 partner): T1 sequence (P04632 1-268 partner)
Put plainly: Calpain inhibition continuous fluorescence (FRET) assay, Human Calpain 9/NS1. It is filed as biochemical. The settings on record: read-out: Human Calpain 9/NS1 IC50. In short, it runs like this:
as §1

For experiment [4], the system named is Calpain activity in SH-SY5Y cells (SBDP-150). Put plainly: SH-SY5Y Spectrin western blot assay (SBDP-150 breakdown product, A23187-induced). Format: cell-based. As to conditions: Homo sapiens, SH-SY5Y cells, read-out: SH-SY5Y Spectrin IC50. For orientation: In western blotting, separated proteins are transferred to a membrane and probed.
Experiment [5] concerns the target T3, Human Calpain 2/NS1 (Homo sapiens, UniProt P17655).
T3 sequence (P17655 1-700): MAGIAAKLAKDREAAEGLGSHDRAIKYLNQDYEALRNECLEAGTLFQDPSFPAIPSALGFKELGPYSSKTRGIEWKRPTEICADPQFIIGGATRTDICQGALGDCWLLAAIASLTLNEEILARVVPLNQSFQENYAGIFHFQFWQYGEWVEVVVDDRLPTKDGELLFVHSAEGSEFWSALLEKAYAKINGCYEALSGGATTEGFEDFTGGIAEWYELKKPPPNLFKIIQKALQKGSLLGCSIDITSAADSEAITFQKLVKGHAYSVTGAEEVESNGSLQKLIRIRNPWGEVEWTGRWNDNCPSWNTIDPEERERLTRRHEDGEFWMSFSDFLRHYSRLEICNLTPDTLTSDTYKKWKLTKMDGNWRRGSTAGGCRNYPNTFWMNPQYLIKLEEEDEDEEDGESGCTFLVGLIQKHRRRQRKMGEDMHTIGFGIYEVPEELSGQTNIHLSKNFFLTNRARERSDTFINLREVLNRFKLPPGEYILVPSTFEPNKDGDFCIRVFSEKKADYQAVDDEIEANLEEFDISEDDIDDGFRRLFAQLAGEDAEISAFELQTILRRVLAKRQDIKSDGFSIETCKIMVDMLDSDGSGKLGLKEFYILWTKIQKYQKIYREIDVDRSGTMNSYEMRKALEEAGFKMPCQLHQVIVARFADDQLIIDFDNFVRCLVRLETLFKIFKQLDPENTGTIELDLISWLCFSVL
T3 sequence (P04632 1-268 partner): T1 sequence (P04632 1-268 partner)
The experiment in a line: Calpain inhibition continuous fluorescence (FRET) assay, Human Calpain 2/NS1. It is filed as biochemical. The settings on record: read-out: Human Calpain 2/NS1 IC50. In short, it runs like this:
as §1

Setting [6] is: A23187-induced SBDP-150, western blot.
Where [7] appears, read: Column D, A23187-induced SBDP-150.

Read-outs that look alike come from different tables or passages of the source.

As to `Cc1cc(C)cc(CC(NC(=O)c2nsnc2-c2ccccc2)C(=O)C(N)=O)c1` (centres unmarked) [Compound 466, N-(4-amino-1-(3,5-dimethylphenyl)-3,4-dioxobutan-2-yl)-4-phenyl-1,2,5-thiadiazole-3-carboxamide], the IC50 in experiment [1] is more than 25 µM; in experiment [2], less than 3 µM; in experiment [3] it was less than 3 µM; in experiment [4] (setting [6]), less than 10 µM; in experiment [5] it was less than 3 µM.

Take `Cn1cc(C(=O)NC(Cc2ccccc2)C(=O)C(N)=O)c(-c2ccc3ccccc3c2)n1` (centres unmarked) [Compound 571, N-(4-amino-3,4-dioxo-1-phenylbutan-2-yl)-1-methyl-3-(naphthalen-2-yl)-1H-pyrazole-4-carboxamide]: the IC50 is more than 25 µM in experiment [1]; less than 3 µM in experiment [2]; less than 3 µM in experiment [3]; more than 25 µM in experiment [4] (setting [6]); less than 3 µM in experiment [5].

For `Cc1cc(C)cc(C[C@H](NC(=O)c2oc(C)nc2-c2ccccc2)C(=O)C(N)=O)c1` [Compound 388, (S)—N-(4-amino-1-(3,5-dimethylphenyl)-3,4-dioxobutan-2-yl)-2-methyl-4-phenyloxazole-5-carboxamide], the IC50 in experiment [1] was 10 to 25 µM; in experiment [2] it was less than 3 µM; in experiment [3] it was less than 3 µM; in experiment [4] (setting [6]) it was less than 10 µM; in experiment [5], less than 3 µM.

Take `COc1ccc(F)c(-c2nn(C)cc2C(=O)NC(Cc2ccccc2)C(=O)C(N)=O)c1` (centres unmarked) [Compound 507, N-(4-amino-3,4-dioxo-1-phenylbutan-2-yl)-3-(2-fluoro-5-methoxyphenyl)-1-methyl-1H-pyrazole-4-carboxamide]: the IC50 in experiment [1] is less than 10 µM; in experiment [2], less than 3 µM; in experiment [3] it was less than 3 µM; in experiment [4] (setting [6]) it was 10 to 25 µM; in experiment [5] it was less than 3 µM.

In the case of `Cn1cc(C(=O)NC(Cc2cc(Cl)cc(Cl)c2)C(=O)C(N)=O)c(-c2ccccc2)n1` (centres unmarked) [Compound 418, N-(4-amino-1-(3,5-dichlorophenyl)-3,4-dioxobutan-2-yl)-1-methyl-3-phenyl-1H-pyrazole-4-carboxamide], the IC50 in experiment [1] was 10 to 25 µM; in experiment [2], less than 3 µM; in experiment [3], less than 3 µM; in experiment [4] (setting [6]), 10 to 25 µM; in experiment [5], less than 3 µM.

For `O=C[C@H](Cc1ccccc1)NC(=O)c1cn(C2CC2)nc1-c1ccccc1` [Compound 330, (S)-1-cyclopropyl-N-(1-oxo-3-phenylpropan-2-yl)-3-phenyl-1H-pyrazole-4-carboxamide], the IC50 in experiment [1] is 10 to 25 µM; in experiment [2] it was less than 3 µM; in experiment [3] it was less than 3 µM; in experiment [4] (setting [6]), 10 to 25 µM; in experiment [5], less than 3 µM.

Regarding `NC(=O)C(=O)[C@H](Cc1ccccc1)NC(=O)c1nsnc1-c1ccccc1` [Compound 376, (S)—N-(4-amino-3,4-dioxo-1-phenylbutan-2-yl)-4-phenyl-1,2,5-thiadiazole-3-carboxamide], the IC50 is less than 10 µM in experiment [1]; less than 3 µM in experiment [2]; less than 3 µM in experiment [3]; less than 10 µM in experiment [4] (setting [6]); less than 3 µM in experiment [5].

As to `Cn1cc(C(=O)NC(CCc2ccccc2)C(=O)C(N)=O)c(-c2ccccc2)n1` (centres unmarked) [Compound 417, N-(1-amino-1,2-dioxo-5-phenylpentan-3-yl)-1-methyl-3-phenyl-1H-pyrazole-4-carboxamide], the IC50 was more than 25 µM in experiment [1]; less than 3 µM in experiment [2]; less than 3 µM in experiment [3]; more than 25 µM in experiment [4] (setting [6]); less than 3 µM in experiment [5].

As to `COc1cccc(-c2nn(C)cc2C(=O)NC(Cc2ccccc2)C(=O)C(N)=O)c1` (centres unmarked) [Compound 407, N-(4-amino-3,4-dioxo-1-phenylbutan-2-yl)-3-(3-methoxyphenyl)-1-methyl-1H-pyrazole-4-carboxamide], the IC50 in experiment [1] was 10 to 25 µM; in experiment [2], less than 3 µM; in experiment [3], less than 3 µM; in experiment [4] (setting [6]) it was 10 to 25 µM; in experiment [5], less than 3 µM.

`Cn1cc(C(=O)N[C@@H](Cc2ccccc2)C(=O)C(N)=O)c(-c2cccc(Cl)c2)n1` [Compound 187, (S)—N-(4-amino-3,4-dioxo-1-phenylbutan-2-yl)-3-(3-chlorophenyl)-1-methyl-1H-pyrazole-4-carboxamide]: the IC50 is more than 25 µM in experiment [1] (Column E); less than 3 µM in experiment [2] (Column A); less than 3 µM in experiment [3] (Column C); 10 to 25 µM in experiment [4] (setting [7]); less than 3 µM in experiment [5] (Column B).

As to `Cn1cc(C(=O)N[C@H](C=O)Cc2ccccc2)c(-c2ccccc2)n1` [Compound 317, (S)-1-methyl-N-(1-oxo-3-phenylpropan-2-yl)-3-phenyl-1H-pyrazole-4-carboxamide], the IC50 was more than 25 µM in experiment [1]; less than 3 µM in experiment [2]; less than 3 µM in experiment [3]; 10 to 25 µM in experiment [4] (setting [6]); less than 3 µM in experiment [5].

As to `NC(=O)C(=O)C(Cc1ccccc1)NC(=O)C1CCCN1c1ccccc1` (centres unmarked) [compound 541], the IC50 in experiment [1] was more than 25 µM; in experiment [2], less than 3 µM; in experiment [3], less than 3 µM; in experiment [4] (setting [6]) it was 10 to 25 µM; in experiment [5] it was less than 3 µM.

For the compound `Cn1cc(C(=O)N[C@@H](Cc2ccccc2)C(=O)C(N)=O)c(-c2ccccc2F)n1` [Compound 181, (S)—N-(4-amino-3,4-dioxo-1-phenylbutan-2-yl)-3-(2-fluorophenyl)-1-methyl-1H-pyrazole-4-carboxamide], the IC50 was less than 10 µM in experiment [1] (Column E); less than 3 µM in experiment [2] (Column A); less than 3 µM in experiment [3] (Column C); less than 10 µM in experiment [4] (setting [7]); less than 3 µM in experiment [5] (Column B).

These data come from US11339130B1 (Blade Therapeutics, Inc., priority 2016, dated 2022).
